From patent US10723741B1, “DNA polymerase IIIC inhibitors and use thereof” (Acurx Pharmaceuticals, LLC, priority 2018, dated 2020)
Values after ≈ are worked out from the molar mass of the structure shown.

Legend:
Type in all cases: cell-based
[1] = tested on: Staphylococcus aureus NRS384 (MRSA); test: Broth microdilution MIC, S. aureus NRS384 (MRSA); conditions: Staphylococcus aureus; broth microdilution, 37° C., 20 hours; read-out: MIC NRS 384 (MRSA)
In short: (§1)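 Two-fold dilutions from 64 to 0.0625 μg/ml final, 1% DMSO, were inoculated at ~5.0×10^5 cfu/ml in the strain's test medium and kept 20 h at 37 °C in ambient atmosphere. Colonies were grown on MHA, with S. pneumoniae on blood agar under 5% CO2.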

[2] = tested on: Staphylococcus aureus ATCC 29213 (MSSA); test: Broth microdilution MIC, S. aureus ATCC 29213 (MSSA); conditions: broth microdilution, 37° C., 20 hours, read-out: MIC S. aureus ATCC 29213 (MSSA)
In short: as §1

[3] = tested on: Enterococcus faecalis ATCC 29212; test: Broth microdilution MIC, E. faecalis ATCC 29212; conditions: ATCC29212, broth microdilution, 37° C., 20 hours, read-out: MIC E. faecalis ATCC 29212
In short: as §1

[4] = tested on: Enterococcus faecium ATCC 700221 (VRE); test: Broth microdilution MIC, E. faecium ATCC 700221 (VRE); conditions: Enterococcus faecium; broth microdilution, 37° C., 20 hours; read-out: MIC E. faecium ATCC 700221 (VRE)
In short: as §1

[5] = tested on: Streptococcus pneumoniae ATCC 49619; test: Broth microdilution MIC, S. pneumoniae ATCC 49619; conditions: ATCC49619, broth microdilution, 37° C., 20 hours, read-out: MIC S. pneumoniae ATCC 49619
In short: as §1

[6] = tested on: Bacillus subtilis ATCC 6633; test: Broth microdilution MIC, B. subtilis ATCC 6633; conditions: ATCC6633, broth microdilution, 37° C., 20 hours, read-out: MIC B. subtilis ATCC 6633
In short: as §1

[7] = tested on: Escherichia coli ATCC 25922; test: Broth microdilution MIC, E. coli ATCC 25922 (MHIIB w & w/o 4 mM EDTA); conditions: broth microdilution, 37° C., 20 hours; for MIC: Escherichia coli, ATCC25922, without EDTA, read-out: MIC E. coli ATCC 25922; for MIC E. coli ATCC 25922 + 4 mM EDTA: with 4 mM EDTA
In short: as §1

SMILES | MIC [1] [µg/mL] | MIC [2] [µg/mL] | MIC [3] [µg/mL] | MIC [4] [µg/mL] | MIC [5] [µg/mL] | MIC [6] [µg/mL] | MIC [7] [µg/mL] | MIC E. coli ATCC 25922 + 4 mM EDTA [7] [µg/mL]
CC(C)(C)OC(=O)N1CCC(CN2CCC(n3ncc4nc(NCc5ccc(Cl)c(Cl)c5)[nH]c(=O)c43)CC2)CC1 [Compound 248, tert-Butyl 4-((4-(5-((3,4-dichlorobenzyl)amino)-7-oxo-6,7-dihydro-1H-pyrazolo[4,3-d]pyrimidin-1-yl)piperidin-1-yl)methyl)piperidine-1-carboxylate2,2,2-trifluoroacetate] | 16 (≈ 27.1 µM) | 16 (≈ 27.1 µM) | 4 (≈ 6.77 µM) | 4 (≈ 6.77 µM) | 8 (≈ 13.5 µM) | 4 (≈ 6.77 µM) | > 64 | 8
Cl.Cl.O=c1[nH]c(NCc2ccc(Cl)c(Cl)c2)nc2cnn(C3CCN(CC4CCCCN4)CC3)c12 (stereo not shown) [Compound 249, 5-((3,4-dichlorobenzyl)amino)-1-(1-(piperidin-2-ylmethyl)piperidin-4-yl)-1H-pyrazolo[4,3-d]pyrimidin-7(6H)-one dihydrochloride] | 16 | 16 | 16 | 8 | 4 | 4 | > 64 | 64
Cl.Cl.O=c1[nH]c(NCc2ccc(Cl)c(Cl)c2)nc2cnn(C3CCN(CC4CCCNC4)CC3)c12 (stereo not shown) [Compound 251, 5-((3,4-dichlorobenzyl)amino)-1-(1-(piperidin-3-ylmethyl)piperidin-4-yl)-1H-pyrazolo[4,3-d]pyrimidin-7(6H)-one dihydrochloride] | 16 | 16 | 16 | 16 | 8 | 4 | > 64 | 64
Cl.O=C(c1ccncc1)N1CCC(n2ncc3nc(NCc4ccc(Cl)c(Cl)c4)[nH]c(=O)c32)CC1 [Compound 252, 5-((3,4-dichlorobenzyl)amino)-1-(1-isonicotinoylpiperidin-4-yl)-1H-pyrazolo[4,3-d]pyrimidin-7(6H)-one hydrochloride] | 4 | 4 | 4 | 2 | 2 | 1 | > 64 | >64
O=C(c1cocn1)N1CCC(n2ncc3nc(NCc4ccc(Cl)c(Cl)c4)[nH]c(=O)c32)CC1 [Compound 253, 5-[(3,4-Dichlorophenyl)methylamino]-1-[1-(oxazole-4-carbonyl)-4-piperidyl]-6H-pyrazolo[4,3-d]pyrimidin-7-one] | 2 (≈ 4.1 µM) | 2 (≈ 4.1 µM) | 4 (≈ 8.19 µM) | 2 (≈ 4.1 µM) | 2 (≈ 4.1 µM) | 1 (≈ 2.05 µM) | > 64 | >64
O=C(c1nccs1)N1CCC(n2ncc3nc(NCc4ccc(Cl)c(Cl)c4)[nH]c(=O)c32)CC1 [Compound 254, 5-[(3,4-Dichlorophenyl)methylamino]-1-[1-(thiazole-2-carbonyl)-4-piperidyl]-6H-pyrazolo[4,3-d]pyrimidin-7-one] | 2 (≈ 3.97 µM) | 2 (≈ 3.97 µM) | 4 (≈ 7.93 µM) | 2 (≈ 3.97 µM) | 4 (≈ 7.93 µM) | 1 (≈ 1.98 µM) | > 64 | >64
Cl.O=C(c1ccccn1)N1CCC(n2ncc3nc(NCc4ccc(Cl)c(Cl)c4)[nH]c(=O)c32)CC1 [Compound 255, 5-((3,4-Dichlorobenzyl)amino)-1-(1-picolinoylpiperidin-4-yl)-1H-pyrazolo[4,3-d]pyrimidin-7(6H)-one hydrochloride] | 4 | 4 | 4 | 2 | 2 | 2 | > 64 | >64
Cl.O=C(c1cccnc1)N1CCC(n2ncc3nc(NCc4ccc(Cl)c(Cl)c4)[nH]c(=O)c32)CC1 [Compound 256, 5-((3,4-Dichlorobenzyl)amino)-1-(1-nicotinoylpiperidin-4-yl)-1H-pyrazolo[4,3-d]pyrimidin-7(6H)-one hydrochloride] | 4 | 8 | 4 | 2 | 4 | 2 | > 64 | >64
COc1cncc(C(=O)N2CCC(n3ncc4nc(NCc5ccc(Cl)c(Cl)c5)[nH]c(=O)c43)CC2)c1.Cl [Compound 260, 5-((3,4-Dichlorobenzyl)amino)-1-(1-(5-methoxynicotinoyl)piperidin-4-yl)-1H-pyrazolo[4,3-d]pyrimidin-7(6H)-one hydrochloride] | 4 | 4 | 4 | 2 | 4 | 1 | > 64 | >64
Cc1cncc(C(=O)N2CCC(n3ncc4nc(NCc5ccc(Cl)c(Cl)c5)[nH]c(=O)c43)CC2)c1.Cl [Compound 261, 5-((3,4-Dichlorobenzyl)amino)-1-(1-(5-methylnicotinoyl)piperidin-4-yl)-1H-pyrazolo[4,3-d]pyrimidin-7(6H)-one hydrochloride] | 4 | 4 | 4 | 2 | 4 | 1 | > 64 | >64

Continued, values first:

MIC [1] [µg/mL] | MIC [2] [µg/mL] | MIC [3] [µg/mL] | MIC [4] [µg/mL] | MIC [5] [µg/mL] | MIC [6] [µg/mL] | MIC [7] [µg/mL] | MIC E. coli ATCC 25922 + 4 mM EDTA [7] [µg/mL] | SMILES
> 64 | > 64 | > 64 | 4 | 8 | 4 | > 64 | >64 | CC(C)(C)OC(=O)N1CCCC(CN2CCC(n3ncc4nc(NCc5ccc(Cl)c(Cl)c5)[nH]c(=O)c43)CC2)C1.Cl (stereo not shown) [Compound 250]
4 | 4 | 8 | 4 | 4 | 2 | > 64 | >64 | Cl.O=C(c1ccccn1)N1CCC(n2ncc3nc(NCc4ccc(Cl)c(Cl)c4)[nH]c(=O)c32)C1 (stereo not shown) [Compound 257, 5-((3,4-Dichlorobenzyl)amino)-1-(1-picolinoylpyrrolidin-3-yl)-1H-pyrazolo[4,3-d]pyrimidin-7(6H)-one]
8 | 8 | 8 | 4 | 4 | 2 | > 64 | >64 | Cl.O=C(c1cccnc1)N1CCC(n2ncc3nc(NCc4ccc(Cl)c(Cl)c4)[nH]c(=O)c32)C1 (stereo not shown) [Compound 258, 5-((3,4-Dichlorobenzyl)amino)-1-(1-nicotinoylpyrrolidin-3-yl)-1H-pyrazolo[4,3-d]pyrimidin-7(6H)-one]
8 | 8 | 4 | 4 | 4 | 2 | > 64 | >64 | Cl.O=C(c1ccncc1)N1CCC(n2ncc3nc(NCc4ccc(Cl)c(Cl)c4)[nH]c(=O)c32)C1 (stereo not shown) [Compound 259, 5-[(3,4-Dichlorophenyl)methylamino]-1-[1-(pyridine-4-carbonyl)pyrrolidin-3-yl]-6H-pyrazolo[4,3-d]pyrimidin-7-one]
